# Measured values published in article PMC11999280, “Design and screening of novel endosomal escape compounds that enhance functional delivery of oligonucleotides in vitro” (Molecular Therapy. Nucleic Acids, 2025).
# Tests used:
# Type in all cases: cell-based
# [1] = tested on: mCherry-GAL9 expressing 16HBE cells; assay: GAL9 recruitment assay, 16HBE; details: calculated mean from >3 independent exp.
# Summary of the method: (§1)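 Using cell lines stably carrying mCherry-GAL9, dose-response treatment begins 24 h after seeding; fixed (4% paraformaldehyde) and Hoechst-stained cells are imaged by confocal microscopy and GAL9 structures counted. Each treatment runs in duplicate wells over three experiments.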
# [2] = tested on: mCherry-GAL9 expressing HEK293 cells; assay: GAL9 recruitment assay, HEK293; details: calculated mean from >3 independent exp.
# Summary of the method: as §1
# [3] = tested on: mCherry-GAL9 expressing HeLa cells; assay: GAL9 recruitment assay, HeLa; details: calculated mean from >3 independent exp.
# Summary of the method: as §1
# [4] = tested on: mCherry-GAL9 expressing HepG2 cells; assay: GAL9 recruitment assay, HepG2; details: calculated mean from >3 independent exp.
# Summary of the method: as §1
# [5] = tested on: mCherry-GAL9 expressing HuH7 cells; assay: GAL9 recruitment assay, HuH7; details: calculated mean from >3 independent exp.
# Summary of the method: as §1
# [6] = tested on: mCherry-GAL9 expressing NCI-H358 cells; assay: GAL9 recruitment assay, NCI-H358; details: calculated mean from >3 independent exp.
# Summary of the method: as §1
# [7] = tested on: mCherry-GAL9 expressing SHSY5Y cells; assay: GAL9 recruitment assay, SHSY5Y; details: calculated mean from >3 independent exp.
# Summary of the method: as §1
# [8] = tested on: mCherry-GAL9 expressing U2OS cells; assay: GAL9 recruitment assay, U2OS; details: calculated mean from >3 independent exp.
# Summary of the method: as §1
# [9] = tested on: HeLa_Luc705 cells (pLuc/705 splice-switching reporter); assay: Functional 705-SSO delivery, luciferase splice-switching assay; details: HeLa-Luc705 + 2 µM SSO, mean from >3 independent experiments
# Summary of the method: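 Splice correction was measured as firefly luciferase luminescence in Triton X-100 lysates taken 24 h after enhancer treatment. Before treatment, the 10,000 cells/well had spent 24 h with 1–2 μM 705-SSO (2′-OMe, phosphorothioate). For comparison, 100–200 nM SSO was lipofected with LF2000.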
smiles,measurement,setting,value
COc1nn(C2CCNCC2)cc1Nc1ncc(F)c(-c2c[nH]c3ccccc23)n1 [EEE23],Gal9 response compared to reference,[1]; EEE 0.31 µM,0.008
same,Gal9 response compared to reference,[1]; EEE 0.62 µM,0.010
same,Gal9 response compared to reference,[1]; EEE 1.25 µM,0.010
same,Gal9 response compared to reference,[1]; EEE 2.5 µM,0.012
same,Gal9 response compared to reference,[1]; EEE 5 µM,0.017
same,Gal9 response compared to reference,[1]; EEE 10 µM,0.032
same,Gal9 response compared to reference,[2]; EEE 0.31 µM,0.019
same,Gal9 response compared to reference,[2]; EEE 0.62 µM,0.015
same,Gal9 response compared to reference,[2]; EEE 1.25 µM,0.015
same,Gal9 response compared to reference,[2]; EEE 2.5 µM,0.016
same,Gal9 response compared to reference,[2]; EEE 5 µM,0.025
same,Gal9 response compared to reference,[2]; EEE 10 µM,0.042
same,Gal9 response compared to reference,[3]; EEE 0.31 µM,0.004
same,Gal9 response compared to reference,[3]; EEE 0.62 µM,0.005
same,Gal9 response compared to reference,[3]; EEE 1.25 µM,0.004
same,Gal9 response compared to reference,[3]; EEE 2.5 µM,0.005
same,Gal9 response compared to reference,[3]; EEE 5 µM,0.005
same,Gal9 response compared to reference,[3]; EEE 10 µM,0.008
same,Gal9 response compared to reference,[4]; EEE 0.31 µM,0.006
same,Gal9 response compared to reference,[4]; EEE 0.62 µM,0.006
same,Gal9 response compared to reference,[4]; EEE 1.25 µM,0.007
same,Gal9 response compared to reference,[4]; EEE 2.5 µM,0.005
same,Gal9 response compared to reference,[4]; EEE 5 µM,0.004
same,Gal9 response compared to reference,[4]; EEE 10 µM,0.005
same,Gal9 response compared to reference,[5]; EEE 0.31 µM,0.007
same,Gal9 response compared to reference,[5]; EEE 0.62 µM,0.008
same,Gal9 response compared to reference,[5]; EEE 1.25 µM,0.009
same,Gal9 response compared to reference,[5]; EEE 2.5 µM,0.009
same,Gal9 response compared to reference,[5]; EEE 5 µM,0.010
same,Gal9 response compared to reference,[5]; EEE 10 µM,0.011
same,Gal9 response compared to reference,[6]; EEE 0.31 µM,0.013
same,Gal9 response compared to reference,[6]; EEE 0.62 µM,0.015
same,Gal9 response compared to reference,[6]; EEE 1.25 µM,0.012
same,Gal9 response compared to reference,[6]; EEE 2.5 µM,0.017
same,Gal9 response compared to reference,[6]; EEE 5 µM,0.017
same,Gal9 response compared to reference,[6]; EEE 10 µM,0.021
same,Gal9 response compared to reference,[7]; EEE 0.31 µM,0.013
same,Gal9 response compared to reference,[7]; EEE 0.62 µM,0.015
same,Gal9 response compared to reference,[7]; EEE 1.25 µM,0.013
same,Gal9 response compared to reference,[7]; EEE 2.5 µM,0.013
same,Gal9 response compared to reference,[7]; EEE 5 µM,0.017
same,Gal9 response compared to reference,[7]; EEE 10 µM,0.087
same,Gal9 response compared to reference,[8]; EEE 0.31 µM,0.011
same,Gal9 response compared to reference,[8]; EEE 0.62 µM,0.012
same,Gal9 response compared to reference,[8]; EEE 1.25 µM,0.015
same,Gal9 response compared to reference,[8]; EEE 2.5 µM,0.015
same,Gal9 response compared to reference,[8]; EEE 5 µM,0.012
same,Gal9 response compared to reference,[8]; EEE 10 µM,0.017
same,Luciferase expression compared to reference,[9]; EEE 5 µM,65.259
same,Luciferase expression compared to reference,[9]; EEE 1-1.25 µM,0.775
same,Luciferase expression compared to reference,[9]; EEE 2.5 - 3 µM,1.207
COc1nn(C2CCN(CCCO)CC2)cc1Nc1ncc(F)c(-n2ccc3c(C#N)cccc32)n1 [EEE12],Gal9 response compared to reference,[1]; EEE 0.31 µM,0.014
same,Gal9 response compared to reference,[1]; EEE 0.62 µM,0.063
same,Gal9 response compared to reference,[1]; EEE 1.25 µM,0.180
same,Gal9 response compared to reference,[1]; EEE 2.5 µM,0.658
same,Gal9 response compared to reference,[1]; EEE 5 µM,0.681
same,Gal9 response compared to reference,[1]; EEE 10 µM,0.421
same,Gal9 response compared to reference,[2]; EEE 0.31 µM,0.023
same,Gal9 response compared to reference,[2]; EEE 0.62 µM,0.122
same,Gal9 response compared to reference,[2]; EEE 1.25 µM,0.432
same,Gal9 response compared to reference,[2]; EEE 2.5 µM,0.716
same,Gal9 response compared to reference,[2]; EEE 5 µM,0.604
same,Gal9 response compared to reference,[2]; EEE 10 µM,0.273
same,Gal9 response compared to reference,[3]; EEE 0.31 µM,0.005
same,Gal9 response compared to reference,[3]; EEE 0.62 µM,0.015
same,Gal9 response compared to reference,[3]; EEE 1.25 µM,0.195
same,Gal9 response compared to reference,[3]; EEE 2.5 µM,0.550
same,Gal9 response compared to reference,[3]; EEE 5 µM,0.394
same,Gal9 response compared to reference,[3]; EEE 10 µM,0.118
same,Gal9 response compared to reference,[4]; EEE 0.31 µM,0.008
same,Gal9 response compared to reference,[4]; EEE 0.62 µM,0.010
same,Gal9 response compared to reference,[4]; EEE 1.25 µM,0.038
same,Gal9 response compared to reference,[4]; EEE 2.5 µM,0.146
same,Gal9 response compared to reference,[4]; EEE 5 µM,0.517
same,Gal9 response compared to reference,[4]; EEE 10 µM,0.574
same,Gal9 response compared to reference,[5]; EEE 0.31 µM,0.014
same,Gal9 response compared to reference,[5]; EEE 0.62 µM,0.031
same,Gal9 response compared to reference,[5]; EEE 1.25 µM,0.143
same,Gal9 response compared to reference,[5]; EEE 2.5 µM,0.357
same,Gal9 response compared to reference,[5]; EEE 5 µM,0.232
same,Gal9 response compared to reference,[5]; EEE 10 µM,0.103
same,Gal9 response compared to reference,[6]; EEE 0.31 µM,0.018
same,Gal9 response compared to reference,[6]; EEE 0.62 µM,0.032
same,Gal9 response compared to reference,[6]; EEE 1.25 µM,0.128
same,Gal9 response compared to reference,[6]; EEE 2.5 µM,0.574
same,Gal9 response compared to reference,[6]; EEE 5 µM,0.607
same,Gal9 response compared to reference,[6]; EEE 10 µM,0.422
same,Gal9 response compared to reference,[7]; EEE 0.31 µM,0.014
same,Gal9 response compared to reference,[7]; EEE 0.62 µM,0.271
same,Gal9 response compared to reference,[7]; EEE 1.25 µM,0.742
same,Gal9 response compared to reference,[7]; EEE 2.5 µM,0.706
same,Gal9 response compared to reference,[7]; EEE 5 µM,0.575
same,Gal9 response compared to reference,[7]; EEE 10 µM,0.177
same,Gal9 response compared to reference,[8]; EEE 0.31 µM,0.013
same,Gal9 response compared to reference,[8]; EEE 0.62 µM,0.017
same,Gal9 response compared to reference,[8]; EEE 1.25 µM,0.057
same,Gal9 response compared to reference,[8]; EEE 2.5 µM,0.299
same,Gal9 response compared to reference,[8]; EEE 5 µM,0.511
same,Gal9 response compared to reference,[8]; EEE 10 µM,0.588
same,Luciferase expression compared to reference,[9]; EEE 2.5 - 3 µM,1.720
